Measurements published in patent US20250082655A1, “USE OF HETEROCYCLIC COMPOUND” (WUHAN CREATERNA SCIENCE AND TECHNOLOGY CO., LTD., priority 2022, published 2025).
Where “and” joins values, the source holds several entries; their conditions need not be identical. Equal values may be shown once.

Test system: citric acid-induced acute cough in guinea pigs
Test: ATP-sensitized citric acid-induced acute cough model in guinea pigs (WBP system)
Format: in vivo, guinea pig
Conditions: for Total cough count (CCnt): within 10 minutes, Mean ± SEM, N = 12; for Change rate of total cough count: versus solvent group; for average cough times decreased compared to the solvent group: decrease; for antitussive effect (in words): compared to the solvent group
Procedure: • Male Hartley guinea pigs: Beijing Vital River Laboratory Animal Technology Co., Ltd; • 250 μM ATP solution: Sigma, catalog number A2383; • 0.5 M citric acid solution: Sigma, catalog number C2404; • DSI Buxco Whole Body Plethysmography (WBP) system instrument: manufacturer DSI, serial numbers 100249, 990171; • Electronic balance: Mettler Toledo, serial number B844687071.
• Solvent (10% (v/v) E-TPGS aqueous solution, pH 7.4±0.1): TPGS was heated and melted into a liquid in a water bath. 10 mL of TPGS was taken and then added to 85 mL of deionized water, and the mixture was stirred to form a homogeneous solution. The pH was adjusted to 7.4±0.1 using an appropriate concentration of HCl/NaOH. The final volume was made up to 100 mL with deionized water, and the mixture was stirred until visually homogeneous. The pH was checked, and if necessary, adjusted to 7.4±0.1 using an appropriate concentration of HCl/NaOH.
The administration formulation was prepared under yellow light conditions.
The required mass of the compound was accurately weighed into an appropriate container, and slowly added to a suitable container containing 80% of the final volume of the solvent (10% (v/v) E-TPGS aqueous solution, pH 7.4±0.1), and the mixture was stirred until visually homogeneous. The solvent was added to 90% of the final volume, and the mixture was stirred until visually homogeneous. If necessary, the pH was adjusted to 7.3-7.6 with an appropriate concentration of HCl/NaOH. If necessary, the formulation was subjected to ultrasonic treatment. The solvent was then added to the final volume, and the mixture was stirred until a visually clear and homogeneous solution was obtained.
After the preparation of the administration formulation was completed, the administration formulation was aliquoted into daily doses and stored in a refrigerator at 2-8° C., protected from light, and used within 10 days. Prior to administration, the formulation was removed from the refrigerator 30 minutes in advance, and stirred for 30 minutes at room temperature and protected from light until it reached room temperature.
Preparation of dextromethorphan: the required volume for administration was calculated based on the animal's body weight. The weighting amount of dextromethorphan (DM) was determined based on the administration volume and dose. The DM was accurately weighed and dissolved in 1×PBS (Phosphate Buffered Saline) with the calculated administration volume. The solution was mixed homogeneously by shaking until a clear solution was formed, and it was prepared freshly before use.
In the experiment, the solvent (10% (v/v) E-TPGS (Vitamin E Polyethylene Glycol Succinate)) and each test compound were administered to guinea pigs by gavage 3 hours prior to citric acid nebulization. The reference compound, dextromethorphan (DM), was administered to guinea pigs by gavage 40 minutes prior to citric acid nebulization (see Table 1 for details).
At the scheduled time, male Hartley guinea pigs (300-400 g) were placed in the respiratory volume plethysmography chamber of the DSI Buxco Whole Body Plethysmography (WBP) system. After an acclimation period of 3-5 minutes, a solution of ATP with a concentration of 250 μM was nebulized and sprayed into the chamber for 2 minutes. After a 3-minute interval, a solution of citric acid with a concentration of 0.5 M was administered for 5 minutes to induce coughing. From the start of citric acid nebulization, the WBP system recorded the total cough counts (CCnt) within 10 minutes and the cough incubation period (CIP, i.e., the time from the start of citric acid induction to the appearance of the first cough).

[1] = 30 mg/kg oral single dose 3 hours before citric acid nebulization
[2] = 30 mg/kg oral, 3 hours before citric acid nebulization
[3] = 30 mg/kg oral, 3 hours before citric acid

Q: Which “Total cough count (CCnt)” value (3 mg/kg oral single dose 3 hours before citric acid nebulization) does the source give for `O=C(c1ccc(F)cc1C(F)(F)F)c1cnc2n1CCN(c1cnn(COP(=O)(O)O)c(=O)c1Cl)C2` [Compound 1, (5-chloro-4-(3-(4-fluoro-2-(trifluoromethyl)benzoyl)-5,6-dihydroimidazo[1,2-a]pyrazin-7(8H)-yl)-6-oxopyridazin-1(6H)-yl)methyl Dihydrogen Phosphate] here?
A: 17.00 times and 17.00 ± 2.11 times

Q: What about the “Cough incubation period (CIP)” value (3 mg/kg oral, 3 hours before citric acid nebulization) of the same compound?
A: 234.42 s and 234.42 ± 24.11 s

Q: What about the “Change rate of total cough count” value (3 mg/kg oral, 3 hours before citric acid) of the same compound?
A: −20.93%

Q: What about the “average cough times decreased compared to the solvent group” value (“average cough times decreased” for short) (3 mg/kg oral) of the same compound?
A: 20.93%

Q: And the “Total cough count (CCnt)” value (10 mg/kg oral single dose 3 hours before citric acid nebulization)?
A: 13.42 times and 13.42 ± 1.18 times

Q: What about the “Cough incubation period (CIP)” value (10 mg/kg oral, 3 hours before citric acid nebulization) of the same compound?
A: 283.67 s and 283.67 ± 42.98 s

Q: What about the “Change rate of total cough count” value (10 mg/kg oral, 3 hours before citric acid) of the same compound?
A: −37.60%

Q: What about the “average cough times decreased” value (10 mg/kg oral) of the same compound?
A: 37.60%

Q: What about the “Total cough count (CCnt)” value [1] of the same compound?
A: 10.73 times and 10.73 ± 1.71 times

Q: And the “Cough incubation period (CIP)” value [2]?
A: 293.75 s and 293.75 ± 33.66 s

Q: What about the “Change rate of total cough count” value [3] of the same compound?
A: −50.11%

Q: What about the “average cough times decreased” value (30 mg/kg oral) of the same compound?
A: 50.11%

Q: What about the “antitussive effect (in words)” value of the same compound?
A: good antitussive effect

Q: For `O=c1[nH]ncc(N2CCc3c(ncnc3Oc3ccc(F)cc3C(F)(F)F)C2)c1Cl` [Compound 2-1], which “Total cough count (CCnt)” value [1] is on record?
A: 12.75 ± 1.86 times

Q: And the “Cough incubation period (CIP)” value [2]?
A: 290.08 s and 290.08 ± 43.61 s

Q: What about the “Change rate of total cough count” value [3] of the same compound?
A: −40.70%

Q: What about the “average cough times decreased” value (30 mg/kg oral) of the same compound?
A: 40.70%

Q: What about the “antitussive effect (in words)” value of the same compound?
A: good antitussive efficacy

Q: What does the source list for `O=c1c(-c2ccc(O)cc2)coc2cc(O)cc(O)c12` [Compound 3-1]?
A: Total cough count (CCnt) [1]: 11.83 ± 2.02 times; Cough incubation period (CIP) [2]: 281.67 s and 281.67 ± 37.84 s; Change rate of total cough count [3]: −44.96%; average cough times decreased compared to the solvent group (30 mg/kg oral): 44.96%; antitussive effect (in words): good antitussive efficacy

Q: With `COc1ccc2c(c1)[C@]13CCCC[C@@H]1[C@H](C2)N(C)CC3` [DM, dextromethorphan, reference compound] as the compound, how does the “Total cough count (CCnt)” value (63 mg/kg oral single dose 40 minutes before citric acid nebulization) read?
A: 12.17 times and 12.17 ± 2.76 ^c times

Q: And the “Cough incubation period (CIP)” value (63 mg/kg oral, 40 minutes before citric acid nebulization)?
A: 291.00 s and 291.00 ± 41.65 s

Q: What about the “Change rate of total cough count” value (63 mg/kg oral, 40 minutes before citric acid) of the same compound?
A: −43.41%
